This note sets out measurements from US11572402B2, “Method for promoting diversification of antibody variable region” (Chiome Bioscience Inc., priority 2017, dated 2023).

The test has as its system hVEGF-A-#33 cell line. Put plainly: Screening for diversification-promoting compounds by FCM (hIgG+_hVEGF-A− population). To be noted: hVEGF-A-#33 cells expressing human IgG, versus negative control CS(−). It is filed as cell-based, chicken. The method, then: Frozen stocks of the hVEGF-A #33 cell line and the hVEGF-A #44 cell line (3.0×10^6 cells) were each awaken with a CS(-) medium, using a 25 cm^2 Flask (Corning, 430639), and were then cultured in a CO2 incubator (SANYO CO2 Incubator MCO-20AIC, 39.5° C., 5% CO2). On the following day, the cells were seeded on a 6-well dish (Nunc, 140675) to a cell density of 1.0×10^4 cells/mL (wherein the cell concentration and the survival rate were measured using CASY cell counter (Nepa Gene)). The cells were cultured in a CS(+) medium, in the presence or absence of a PI3Kα inhibitor ([…]: 10 μM, PI3Kα Inhibitor 2: 500 nM). Moreover, after the cells had been cultured for 2 days, individual samples were subcultured under the same conditions to result in a cell density of 1.0×10^4 cells/mL. Further, after completion of the culture for 3 days, individual samples were subcultured under the same conditions to result in a cell density of 6.0×10^4 cells/mL, and the culture was continued. After completion of the culture for 2 days (Day 7 of the culture), individual samples were centrifuged to remove a supernatant, and the residue was then suspended in a CS(+) medium supplemented with 1 μM FK-506 (hereinafter referred to as a “CS/FK medium”). The suspension was centrifuged again to remove a supernatant. This washing step was carried out repeatedly twice, and individual samples were then suspended in a CS/FK medium supplemented with AF647-labeled hVEGF-A (10 nM) and 2,000-fold diluted Goat Anti-Human IgG-PE. The light was shielded, and the obtained suspension was then reacted at 4° C. for 30 min. After completion of the staining, the reaction mixture was washed with a CS/FK medium twice, and each sample was then suspended in the CS/FK medium. Thereafter, using FACS Aria Fusion (BD), FCM and single cell sorting was carried out. Dead cells were removed using FSC-SSC plot. A plot, in which the vertical axis indicated AF647 (AF647-labeled hVEGF-A) and the longitudinal axis indicated PE (Goat Anti-Human IgG-PE), was developed, and the percentage of PE+(hIgG+)/AF647-(hVEGF-A-) cells was then calculated. In order to make a comparison regarding the number of cells with improved antigen-binding ability according to Affinity Maturation under individual conditions, Affinity Maturation Gate was established according to the following criteria. First, the plot was converted to a contour plot in FCM analysis, and a trapezoid gate having an inclination that was in parallel with the contour of a population in which the most cells were gathered (hereinafter referred to as a “main population”) was established. […] At that time, the vertex of the trapezoid gate was set to be overlapped with the mean value MFI of the main population, and then, a cell population having low antigen-binding ability and a cell population having a low expression level of antibody were set not to enter the gate. The percentage of clones with improved antigen-binding ability was calculated by counting the number of cells existing in this Affinity Maturation Gate and then dividing the obtained value by the total number of the analyzed cells. […]
Consider `Oc1cccc(-c2nc(N3CCOCC3)c3oc4ncccc4c3n2)c1` [PI-103], for which the “percentage of hIgG+_hVEGF-A− cell population (diversification-promoting effect)” value (“percentage” for short) was “increased in comparison to the negative control (CS(−))”.

Regarding `N#Cc1ccc(-c2c(-c3ncn[nH]3)sc(N3CCOCC3)c2C#N)c(F)c1` [PF-4989216], the “percentage” value is “increased in comparison to the negative control (CS(−))”.

Take `COc1ccc2c(c1OC)N=C(NC(=O)c1cccnc1)N1CCN=C21` [PIK-90]: the “percentage” value is “increased in comparison to the negative control (CS(−))”.

With `O=C1NC(=O)/C(=C/c2ccc3nccc(-c4ccncc4)c3c2)S1` [GSK1059615], the “percentage” value is given as “increased in comparison to the negative control (CS(−))”.
